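Tested at 5 concentrations; 48 h exposure; 96-well plates; endpoints linearly interpolated, else capped at highest concentration. GI50 marks 50% less growth. TGI: concentration producing complete growth inhibition.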
How the values were obtained:
Assay in all cases: NCI tumour cell line growth inhibition, 48 h
786-0 renal = test system: 786-0 renal
A498 renal = test system: A498 renal
A549 NSCLC = test system: A549 NSCLC
ACHN renal = test system: ACHN renal
BT-549 breast = test system: BT-549 breast
CAKI-1 renal = test system: CAKI-1 renal
CCRF-CEM leukemia = test system: CCRF-CEM leukemia
COLO 205 colon = test system: COLO 205 colon
DU-145 prostate = test system: DU-145 prostate
EKVX NSCLC = test system: EKVX NSCLC
HCC-2998 colon = test system: HCC-2998 colon
HCT-116 colon = test system: HCT-116 colon
HCT-15 colon = test system: HCT-15 colon
HL-60(TB) leukemia = test system: HL-60(TB) leukemia
HOP-62 NSCLC = test system: HOP-62 NSCLC
HOP-92 NSCLC = test system: HOP-92 NSCLC
HS 578T breast = test system: HS 578T breast
HT29 colon = test system: HT29 colon
IGROV1 ovarian = test system: IGROV1 ovarian
K-562 leukemia = test system: K-562 leukemia
KM12 colon = test system: KM12 colon
LOX IMVI melanoma = test system: LOX IMVI melanoma
M14 melanoma = test system: M14 melanoma
MALME-3M melanoma = test system: MALME-3M melanoma
MCF7 breast = test system: MCF7 breast
MDA-MB-231 breast = test system: MDA-MB-231 breast
MDA-MB-435 = test system: MDA-MB-435
MDA-MB-468 breast = test system: MDA-MB-468 breast
MOLT-4 leukemia = test system: MOLT-4 leukemia
NCI-H226 lung = test system: NCI-H226 lung

`Cc1ccc(C2CC(c3ccc(NC(=O)Nc4ccccc4)cc3)=NN2c2ccc(S(C)(=O)=O)cc2)cc1` (centres undefined) was tested, and the GI50 (786-0 renal) was 2.24 µM, the TGI (786-0 renal) was 6.1 µM and the GI50 (A498 renal) was 2.73 µM. It also gave a TGI (A498 renal) of 6.97 µM, a GI50 (A549 NSCLC) of 3.46 µM and a TGI (A549 NSCLC) of 16 µM. The GI50 (ACHN renal) was 2.99 µM, the TGI (ACHN renal) was 9.59 µM and the GI50 (BT-549 breast) was 2.95 µM. The TGI (BT-549 breast) was 7.93 µM, the GI50 (CAKI-1 renal) was 3.34 µM and the TGI (CAKI-1 renal) was 11.6 µM. It also gave a GI50 (CCRF-CEM leukemia) of 2.53 µM, a TGI (CCRF-CEM leukemia) of 6.98 µM and a GI50 (COLO 205 colon) of 1.93 µM. It also gave a TGI (COLO 205 colon) of 3.65 µM, a GI50 (DU-145 prostate) of 4.43 µM and a TGI (DU-145 prostate) of 18.2 µM. It also gave a GI50 (EKVX NSCLC) of 2.61 µM, a TGI (EKVX NSCLC) of 11.1 µM and a GI50 (HCC-2998 colon) of 2.38 µM. For the same compound, the TGI (HCC-2998 colon) was 6.27 µM, the GI50 (HCT-116 colon) was 1.72 µM and the TGI (HCT-116 colon) was 3.56 µM. It also gave a GI50 (HCT-15 colon) of 1.95 µM, a TGI (HCT-15 colon) of 5.4 µM and a GI50 (HL-60(TB) leukemia) of 2.09 µM. For the same compound, the TGI (HL-60(TB) leukemia) was 6.11 µM, the GI50 (HOP-62 NSCLC) was 6.94 µM and the TGI (HOP-62 NSCLC) was 21.4 µM. It also gave a GI50 (HOP-92 NSCLC) of 2.35 µM, a TGI (HOP-92 NSCLC) of 8.22 µM and a GI50 (HS 578T breast) of 3.47 µM. For the same compound, the TGI (HS 578T breast) was 17.2 µM, the GI50 (HT29 colon) was 1.91 µM and the TGI (HT29 colon) was 4.97 µM. The GI50 (IGROV1 ovarian) was 2.91 µM, the TGI (IGROV1 ovarian) was 11 µM and the GI50 (K-562 leukemia) was 3.14 µM. The TGI (K-562 leukemia) was 70.9 µM, the GI50 (KM12 colon) was 3.15 µM and the TGI (KM12 colon) was 10.7 µM. The GI50 (LOX IMVI melanoma) was 1.68 µM, the TGI (LOX IMVI melanoma) was 3.07 µM and the GI50 (M14 melanoma) was 3.28 µM. For the same compound, the TGI (M14 melanoma) was 12.6 µM, the GI50 (MALME-3M melanoma) was 2.47 µM and the TGI (MALME-3M melanoma) was 8.74 µM. For the same compound, the GI50 (MCF7 breast) was 2.11 µM, the TGI (MCF7 breast) was 6.79 µM and the GI50 (MDA-MB-231 breast) was 2.11 µM. The TGI (MDA-MB-231 breast) was 4.94 µM, the GI50 (MDA-MB-435) was 2.94 µM and the TGI (MDA-MB-435) was 12.3 µM. For the same compound, the GI50 (MDA-MB-468 breast) was 2.09 µM, the TGI (MDA-MB-468 breast) was 5.66 µM and the GI50 (MOLT-4 leukemia) was 2.42 µM. It also gave a TGI (MOLT-4 leukemia) of 8.14 µM and a GI50 (NCI-H226 lung) of 2.41 µM.

From PubChem BioAssay (NCI)
